{"source": "patent US12037345B2", "about": "“Heterobicyclic compounds for inhibiting the activity of SHP2” (TAIHO PHARMACEUTICAL CO., LTD., priority 2018, dated 2024)", "key": {"SHP2": {"biological_target": "SHP2 (Homo sapiens (Human), UniProt Q06124)", "sequence (Q06124 whole entry)": "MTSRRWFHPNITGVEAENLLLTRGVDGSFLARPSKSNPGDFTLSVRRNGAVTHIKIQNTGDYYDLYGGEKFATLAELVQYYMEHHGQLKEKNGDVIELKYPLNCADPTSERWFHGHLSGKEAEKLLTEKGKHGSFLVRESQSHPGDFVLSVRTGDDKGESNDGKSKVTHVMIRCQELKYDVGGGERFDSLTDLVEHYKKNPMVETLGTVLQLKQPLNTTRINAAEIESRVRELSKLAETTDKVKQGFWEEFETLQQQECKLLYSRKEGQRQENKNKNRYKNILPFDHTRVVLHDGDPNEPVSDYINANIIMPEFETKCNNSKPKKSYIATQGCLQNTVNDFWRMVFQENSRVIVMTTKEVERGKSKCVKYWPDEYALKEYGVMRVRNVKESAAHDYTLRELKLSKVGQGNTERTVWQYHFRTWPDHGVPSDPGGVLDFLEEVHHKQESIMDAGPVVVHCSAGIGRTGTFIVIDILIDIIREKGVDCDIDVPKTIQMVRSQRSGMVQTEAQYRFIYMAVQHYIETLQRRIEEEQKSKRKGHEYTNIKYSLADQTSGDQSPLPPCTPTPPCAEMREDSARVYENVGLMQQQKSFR", "assay": "SHP2 Biochemical Assay (DiFMUP conversion, pIRS1-activated)", "in_short": "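Rates of DiFMU formation were followed 30 min at ex 360/em 450 nm, with 50 μM DiFMUP, 10 pM SHP2 and pIRS1 peptide ([…]) after 30 min compound pre-incubation at pH 7.0 Bis-Tris propane. Four-parameter logistic IC50s in singlicate; repeat runs averaged.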"}, "[1]": {"test_system": "pERK (phospho-p44/42 ERK) in HCC827 cells", "assay": "Cellular pERK Inhibition Assay, Method A (In-Cell Western)", "assay_type": "cell-based", "details": "Homo sapiens", "in_short": "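In-Cell Western: phospho-p44/42 ERK antibody staining of formalin-fixed HCC827 cells after compound exposure (serum-free medium, 0.2% DMSO, 37 °C, indicated time). Readings minus cell-free blanks were normalised to DMSO-treated wells. Relative IC50 came from four-parameter logistic fits of quadruplicates, given as single or mean values.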"}, "[2]": {"details": "Table 19, head prints unit as \"-M\""}, "[3]": {"details": "Table 19, head prints unit as \"-M\", read-out: pERK (IC50) Method A"}, "[4]": {"details": "Table 20, read-out: pERK (IC50, μM) Method A"}}, "note": "Structures can show the parent of a compound that is named as a salt. Where two headings read alike, the source gives them in different places."}
{"smiles": "CN[C@@H]1C[C@@H]2CC[C@H]1N2c1nc2[nH]nc(-c3ccc4nc(C)sc4c3Cl)c2c(=O)n1C", "note": "[Example 124, 3-(7-chloro-2-methylbenzo[d]thiazol-6-yl)-5-methyl-6-((1R,2R,4S)-2-(methylamino)-7-azabicyclo[2.2.1]heptan-7-yl)-1,5-dihydro-4H-pyrazolo[3,4-d]pyrimidin-4-one]", "values": [{"measurement": "IC50", "setting": "SHP2; [2]", "result": 19, "unit": "nM"}, {"measurement": "IC50", "setting": "[1]; [3]", "result": 0.43, "unit": "µM"}]}
{"smiles": "CCn1nc2ccc(-c3n[nH]c4nc(N5[C@H]6CC[C@@H]5[C@H](N)C6)n(C)c(=O)c34)c(Cl)c2c1Cl", "note": "[Example 127, 6-((1R,2R,4S)-2-amino-7-azabicyclo[2.2.1]heptan-7-yl)-3-(3,4-dichloro-2-ethyl-2H-indazol-5-yl)-5-methyl-1,5-dihydro-4H-pyrazolo[3,4-d]pyrimidin-4-one]", "values": [{"measurement": "IC50", "setting": "SHP2; [2]", "result": 3.7, "unit": "nM"}, {"measurement": "IC50", "setting": "[1]; [3]", "result": 0.063, "unit": "µM"}]}
{"smiles": "CCn1nc2ccc(-c3n[nH]c4nc(N5[C@H]6CC[C@@H]5[C@H](NC)C6)n(C)c(=O)c34)c(Cl)c2c1Cl", "note": "[Example 128, 3-(3,4-dichloro-2-ethyl-2H-indazol-5-yl)-5-methyl-6-((1R,2R,4S)-2-(methylamino)-7-azabicyclo[2.2.1]heptan-7-yl)-1,5-dihydro-4H-pyrazolo[3,4-d]pyrimidin-4-one]", "values": [{"measurement": "IC50", "setting": "SHP2; [2]", "result": 11, "unit": "nM"}, {"measurement": "IC50", "setting": "[1]; [3]", "result": 0.16, "unit": "µM"}]}
{"smiles": "Cn1cc2c(Cl)c(-c3c[nH]c4nc(N5[C@H]6CC[C@@H]5[C@@H](F)[C@H](N)C6)n(C)c(=O)c34)ccc2n1", "note": "[Example 129, 2-((1R,2S,3R,5S)-3-amino-2-fluoro-8-azabicyclo[3.2.1]octan-8-yl)-5-(4-chloro-2-methyl-2H-indazol-5-yl)-3-methyl-3,7-dihydro-4H-pyrrolo[2,3-d]pyrimidin-4-one]", "values": [{"measurement": "IC50", "setting": "SHP2; [2]", "result": 69, "unit": "nM"}, {"measurement": "IC50", "setting": "[1]; [3]", "result": 0.98, "unit": "µM"}]}
{"smiles": "Cn1cc2c(Cl)c(-c3c[nH]c4nc(N5[C@@H]6CC[C@H]5[C@H](F)[C@@H](N)C6)n(C)c(=O)c34)ccc2n1", "note": "[Example 130, 2-((1S,2R,3S,5R)-3-amino-2-fluoro-8-azabicyclo[3.2.1]octan-8-yl)-5-(4-chloro-2-methyl-2H-indazol-5-yl)-3-methyl-3,7-dihydro-4H-pyrrolo[2,3-d]pyrimidin-4-one]", "values": [{"measurement": "IC50", "setting": "SHP2; [2]", "result": 63, "unit": "nM"}, {"measurement": "IC50", "setting": "[1]; [3]", "result": 0.8, "unit": "µM"}]}
{"smiles": "Cn1cc2c(Cl)c(-c3c[nH]c4nc(N5[C@H]6CC[C@@H]5[C@H](F)[C@H](N)C6)n(C)c(=O)c34)ccc2n1", "note": "[Example 131, 2-((1R,2R,3R,5S)-3-amino-2-fluoro-8-azabicyclo[3.2.1]octan-8-yl)-5-(4-chloro-2-methyl-2H-indazol-5-yl)-3-methyl-3,7-dihydro-4H-pyrrolo[2,3-d]pyrimidin-4-one]", "values": [{"measurement": "IC50", "setting": "SHP2; [2]", "result": 28, "unit": "nM"}, {"measurement": "IC50", "setting": "[1]; [3]", "result": 0.46, "unit": "µM"}]}
{"smiles": "Cn1cc2c(Cl)c(-c3c[nH]c4nc(N5[C@@H]6CC[C@H]5[C@@H](F)[C@@H](N)C6)n(C)c(=O)c34)ccc2n1", "note": "[Example 132, 2-((1S,2S,3S,5R)-3-amino-2-fluoro-8-azabicyclo[3.2.1]octan-8-yl)-5-(4-chloro-2-methyl-2H-indazol-5-yl)-3-methyl-3,7-dihydro-4H-pyrrolo[2,3-d]pyrimidin-4-one]", "values": [{"measurement": "IC50", "setting": "SHP2; [2]", "result": 15, "unit": "nM"}, {"measurement": "IC50", "setting": "[1]; [3]", "result": 0.25, "unit": "µM"}]}
{"smiles": "CCn1nc2ccc(-c3c[nH]c4nc(N5[C@H]6CC[C@@H]5[C@H](N)C6)n(C)c(=O)c34)c(Cl)c2c1C#N", "note": "[Example 159, 5-(2-((1R,2R,4S)-2-Amino-7-azabicyclo[2.2.1]heptan-7-yl)-3-methyl-4-oxo-4,7-dihydro-3H-pyrrolo[2,3-d]pyrimidin-5-yl)-4-chloro-2-ethyl-2H-indazole-3-carbonitrile]", "values": [{"measurement": "IC50", "setting": "SHP2; [2]", "result": 3.5, "unit": "nM"}, {"measurement": "IC50", "setting": "[1]; [3]", "result": 0.15, "unit": "µM"}]}
{"smiles": "Cn1nc2ccc(-c3n[nH]c4nc(N5[C@@H]6CC[C@H]5C[C@@H](N)C6)n(C)c(=O)c34)c(Cl)c2c1Cl", "note": "[Example 160, 6-(endo-3-amino-8-azabicyclo[3.2.1]octan-8-yl)-3-(3,4-dichloro-2-methyl-2H-indazol-5-yl)-5-methyl-1,5-dihydro-4H-pyrazolo[3,4-d]pyrimidin-4-one, hydrochloride salt]", "values": [{"measurement": "IC50", "setting": "SHP2; Table 20", "result": 8.5, "unit": "nM"}, {"measurement": "IC50", "setting": "[1]; [4]", "result": 0.23, "unit": "µM"}]}
{"smiles": "Cn1nc2ccc(-c3n[nH]c4nc(N5[C@@H]6CC[C@H]5C[C@@](C)(N)C6)n(C)c(=O)c34)c(Cl)c2c1Cl", "note": "[Example 161, 6-(endo-3-amino-3-methyl-8-azabicyclo[3.2.1]octan-8-yl)-3-(3,4-dichloro-2-methyl-2H-indazol-5-yl)-5-methyl-1,5-dihydro-4H-pyrazolo[3,4-d]pyrimidin-4-one]", "values": [{"measurement": "IC50", "setting": "SHP2; Table 20", "result": 12, "unit": "nM"}, {"measurement": "IC50", "setting": "[1]; [4]", "result": 0.26, "unit": "µM"}]}
{"smiles": "Cn1nc2ccc(-c3n[nH]c4nc(N5CC[C@H](N)[C@H](F)C5)n(C)c(=O)c34)c(Cl)c2c1Cl", "note": "[Example 162, 6-((3R,4S)-4-amino-3-fluoropiperidin-1-yl)-3-(3,4-dichloro-2-methyl-2H-indazol-5-yl)-5-methyl-1,5-dihydro-1H-pyrazolo[3,4-d]pyrimidin-4-one]", "values": [{"measurement": "IC50", "setting": "SHP2; Table 20", "result": 42, "unit": "nM"}, {"measurement": "IC50", "setting": "[1]; [4]", "result": 0.81, "unit": "µM"}]}
{"smiles": "Cn1nc2ccc(-c3c[nH]c4nc(N5[C@H]6CC[C@@H]5[C@@H](F)[C@@H](N)C6)n(C)c(=O)c34)c(Cl)c2c1Cl", "note": "[Example 163, 2-((1R,2S,3S,5S)-3-amino-2-fluoro-8-azabicyclo[3.2.1]octan-8-yl)-5-(3,4-dichloro-2-methyl-2H-indazol-5-yl)-3-methyl-3,7-dihydro-4H-pyrrolo[2,3-d]pyrimidin-4-one]", "values": [{"measurement": "IC50", "setting": "SHP2; Table 20", "result": 2, "unit": "nM"}, {"measurement": "IC50", "setting": "[1]; [4]", "result": 0.012, "unit": "µM"}]}
{"smiles": "CN[C@H]1C[C@H]2CC[C@@H]1N2c1nc2[nH]cc(-c3ccc4nn(C)cc4c3Cl)c2c(=O)n1C", "note": "[Example 165, 5-(4-chloro-2-methyl-2H-indazol-5-yl)-3-methyl-2-((1S,2S,4R)-2-(methylamino)-7-azabicyclo[2.2.1]heptan-7-yl)-3,7-dihydro-4H-pyrrolo[2,3-d]pyrimidin-4-one]", "values": [{"measurement": "IC50", "setting": "SHP2; Table 20", "result": 84, "unit": "nM"}, {"measurement": "IC50", "setting": "[1]; [4]", "result": 1.4, "unit": "µM"}]}
{"smiles": "COc1cnc2ccc(-c3c[nH]c4nc(N5[C@H]6CC[C@@H]5[C@H](N)C6)n(C)c(=O)c34)c(Cl)c2n1", "note": "[Example 169, 2-((1R,2R,4S)-2-amino-7-azabicyclo[2.2.1]heptan-7-yl)-5-(5-chloro-3-methoxyquinoxalin-6-yl)-3-methyl-3,7-dihydro-4H-pyrrolo[2,3-d]pyrimidin-4-one]", "values": [{"measurement": "IC50", "setting": "SHP2; Table 20", "result": 3.3, "unit": "nM"}, {"measurement": "IC50", "setting": "[1]; [4]", "result": 0.073, "unit": "µM"}]}
{"smiles": "CN(C)c1cnc2ccc(-c3c[nH]c4nc(N5[C@H]6CC[C@@H]5[C@H](N)C6)n(C)c(=O)c34)c(Cl)c2n1", "note": "[Example 170, 2-((1R,2R,4S)-2-amino-7-azabicyclo[2.2.1]heptan-7-yl)-5-(5-chloro-3-(dimethylamino)quinoxalin-6-yl)-3-methyl-3,7-dihydro-4H-pyrrolo[2,3-d]pyrimidin-4-one]", "values": [{"measurement": "IC50", "setting": "SHP2; Table 20", "result": 3, "unit": "nM"}, {"measurement": "IC50", "setting": "[1]; [4]", "result": 0.016, "unit": "µM"}]}
{"smiles": "Cn1nc2ccc(-c3c[nH]c4nc(N5C[C@H]6CC[C@@H]5[C@@H]6N)n(C)c(=O)c34)c(F)c2c1Cl", "note": "[Example 174, 2-((1R,4R,7R)-7-amino-2-azabicyclo[2.2.1]heptan-2-yl)-5-(3-chloro-4-fluoro-2-methyl-2H-indazol-5-yl)-3-methyl-3,7-dihydro-4H-pyrrolo[2,3-d]pyrimidin-4-one]", "values": [{"measurement": "IC50", "setting": "SHP2; Table 20", "result": 3, "unit": "nM"}, {"measurement": "IC50", "setting": "[1]; [4]", "result": 0.021, "unit": "µM"}]}
{"smiles": "Cn1c(N2[C@@H]3CC[C@H]2C[C@@H](N)C3)nc2[nH]cc(-c3ccc4nccnc4c3Cl)c2c1=O", "note": "[Example 176, 2-(endo-3-amino-8-azabicyclo[3.2.1]octan-8-yl)-5-(5-chloroquinoxalin-6-yl)-3-methyl-3,7-dihydro-4H-pyrrolo[2,3-d]pyrimidin-4-one]", "values": [{"measurement": "IC50", "setting": "SHP2; Table 20", "result": 77, "unit": "nM"}, {"measurement": "IC50", "setting": "[1]; [4]", "result": 0.66, "unit": "µM"}]}
{"smiles": "CCN[C@@H]1C[C@@H]2CC[C@H]1N2c1nc2[nH]nc(-c3ccc4nn(C)c(Cl)c4c3Cl)c2c(=O)n1C", "note": "[Example 177, 3-(3,4-dichloro-2-methyl-2H-indazol-5-yl)-6-((1R,2R,4S)-2-(ethylamino)-7-azabicyclo[2.2.1]heptan-7-yl)-5-methyl-1,5-dihydro-4H-pyrazolo[3,4-d]pyrimidin-4-one]", "values": [{"measurement": "IC50", "setting": "SHP2; Table 20", "result": 95, "unit": "nM"}, {"measurement": "IC50", "setting": "[1]; [4]", "result": 1.4, "unit": "µM"}]}
{"smiles": "COCCn1cc2c(Cl)c(-c3c[nH]c4nc(N5[C@H]6CC[C@@H]5[C@H](N)C6)n(C)c(=O)c34)ccc2n1", "note": "[Example 178, 2-((1R,2R,4S)-2-amino-7-azabicyclo[2.2.1]heptan-7-yl)-5-(4-chloro-2-(2-methoxyethyl)-2H-indazol-5-yl)-3-methyl-3,7-dihydro-4H-pyrrolo[2,3-d]pyrimidin-4-one]", "values": [{"measurement": "IC50", "setting": "SHP2; Table 20", "result": 5, "unit": "nM"}, {"measurement": "IC50", "setting": "[1]; [4]", "result": 0.071, "unit": "µM"}]}
{"smiles": "CC(C)N[C@@H]1C[C@@H]2CC[C@H]1N2c1nc2[nH]nc(-c3ccc4nn(C)c(Cl)c4c3Cl)c2c(=O)n1C", "note": "[Example 179, 3-(3,4-Dichloro-2-methyl-2H-indazol-5-yl)-6-((1R,2R,4S)-2-(isopropylamino)-7-azabicyclo[2.2.1]heptan-7-yl)-5-methyl-1,5-dihydro-4H-pyrazolo[3,4-d]pyrimidin-4-one]", "values": [{"measurement": "IC50", "setting": "SHP2; Table 20", "result": 150, "unit": "nM"}, {"measurement": "IC50", "setting": "[1]; [4]", "result": 2.1, "unit": "µM"}]}
